Source: the supplement of paper PMC10307832

Assays:
Assay in all cases: relative viability (nuclei count vs DMSO), 5 days (fraction); higher = more cells survive
KIN001-266 = compound: CCN1CCC(CC1)N2C=C(N=N2)CNC3=CC4=C(C(=CN=C4C(=C3)Cl)C#N)NC5=CC(=C(C=C5)F)Cl [KIN001-266]
Method in brief: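 Nuclei counted with MetaXpress define viability as the ratio of treated to vehicle wells, given as a median across plates. The lung cancer cell lines were in 1536-well plates, pinned with five √10-spaced library-drug doses and imaged at 4× after 5 days and Hoechst staining. Plates passed with control CV below 25% and at least one doubling.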

KIN001-266 + Tozasertib = compound: CCN1CCC(CC1)N2C=C(N=N2)CNC3=CC4=C(C(=CN=C4C(=C3)Cl)C#N)NC5=CC(=C(C=C5)F)Cl [KIN001-266] + Cc1cc(Nc2cc(N3CCN(C)CC3)nc(Sc3ccc(NC(=O)C4CC4)cc3)n2)n[nH]1 [Tozasertib] (partner 0.1 µM)
Method in brief: (§1)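 Lung cancer cell lines in 1536-well plates were dosed by pin tool the day after seeding, either with one drug alone or with a fixed anchor-drug dose plus five library-drug doses (not always all listed) in √10 steps. After 5 days, cells were fixed and their nuclei stained in one step (final 0.05% Triton X-100, 1% formaldehyde, 1 ug/ml Hoechst), then counted on 4× images. Relative viability is the nuclei count in treated wells divided by that in vehicle wells. Values are medians of duplicate plates.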

KIN001-266 + Navitoclax = compound: CCN1CCC(CC1)N2C=C(N=N2)CNC3=CC4=C(C(=CN=C4C(=C3)Cl)C#N)NC5=CC(=C(C=C5)F)Cl [KIN001-266] + CC1(C)CCC(c2ccc(Cl)cc2)=C(CN2CCN(c3ccc(C(=O)NS(=O)(=O)c4ccc(N[C@H](CCN5CCOCC5)CSc5ccccc5)c(S(=O)(=O)C(F)(F)F)c4)cc3)CC2)C1 [Navitoclax] (partner 0.5 µM)
Method in brief: as §1

KIN001-266 + Phenformin = compound: CCN1CCC(CC1)N2C=C(N=N2)CNC3=CC4=C(C(=CN=C4C(=C3)Cl)C#N)NC5=CC(=C(C=C5)F)Cl [KIN001-266] + N=C(N)NC(=N)NCCc1ccccc1 [Phenformin] (partner 250 µM)
Method in brief: as §1

| Cell Line | relative viability (KIN001-266; 0.08 µM) | relative viability (KIN001-266; 0.253 µM) | relative viability (KIN001-266; 0.8 µM) | relative viability (KIN001-266; 2.53 µM) | relative viability (KIN001-266; 8 µM) | relative viability (KIN001-266 + Tozasertib; first compound 0.08 µM) | relative viability (KIN001-266 + Tozasertib; first compound 0.253 µM) | relative viability (KIN001-266 + Tozasertib; first compound 0.8 µM) | relative viability (KIN001-266 + Tozasertib; first compound 2.53 µM) | relative viability (KIN001-266 + Tozasertib; first compound 8 µM) | relative viability (KIN001-266 + Navitoclax; first compound 0.08 µM) | relative viability (KIN001-266 + Navitoclax; first compound 0.253 µM) | relative viability (KIN001-266 + Navitoclax; first compound 0.8 µM) | relative viability (KIN001-266 + Navitoclax; first compound 2.53 µM) | relative viability (KIN001-266 + Navitoclax; first compound 8 µM) | relative viability (KIN001-266 + Phenformin; first compound 0.08 µM) | relative viability (KIN001-266 + Phenformin; first compound 0.253 µM) | relative viability (KIN001-266 + Phenformin; first compound 0.8 µM) | relative viability (KIN001-266 + Phenformin; first compound 2.53 µM) | relative viability (KIN001-266 + Phenformin; first compound 8 µM) |
| --- | --- | --- | --- | --- | --- | --- | --- | --- | --- | --- | --- | --- | --- | --- | --- | --- | --- | --- | --- | --- |
| LK-2 | 1.14 | 0.885 | 1.2 | 0.969 | 1.12 | 0.182 | 0.18 | 0.174 | 0.185 | 0.154 | 0.956 | 0.917 | 1.11 | 0.844 | 1.13 | 0.538 | 0.352 | 0.342 | 0.281 | 0.288 |
| LOU-NH91 | 1.07 | 1.04 | 0.737 | 0.85 | 0.845 | 0.675 | 0.689 | 0.492 | 0.609 | 0.501 | 0.761 | 0.646 | 0.47 | 0.609 | 0.55 | 0.716 | 0.737 | 0.489 | 0.637 | 0.552 |
| LU99A | 0.985 | 0.952 | 0.958 | 0.847 | 0.849 | 0.282 | 0.29 | 0.259 | 0.21 | 0.191 | 0.917 | 0.749 | 0.735 | 0.752 | 0.569 | 0.971 | 0.805 | 0.815 | 0.649 | 0.682 |
| LXF-289 | 0.949 | 0.984 | 1 | 1 | 1.06 | 0.186 | 0.236 | 0.172 | 0.201 | 0.189 | 0.957 | 0.952 | 0.929 | 0.952 | 0.925 | 0.497 | 0.522 | 0.497 | 0.534 | 0.54 |
| NCI-H23 | 1.01 | 1.03 | 0.935 | 0.917 | 0.858 | 0.359 | 0.381 | 0.376 | 0.41 | 0.271 | 0.835 | 0.876 | 0.762 | 0.962 | 0.719 | 0.826 | 0.715 | 0.772 | 0.722 | 0.73 |
| NCI-H322M | 1.04 | 1 | 0.928 | 0.785 | 0.779 | 0.451 | 0.554 | 0.513 | 0.433 | 0.458 | 1.19 | 1.3 | 1.24 | 1.05 | 1.18 | 0.841 | 0.835 | 0.822 | 0.743 | 0.747 |
| NCI-H441 | 1.11 | 1.07 | 1.1 | 0.939 | 0.789 | 0.75 | 0.737 | 0.557 | 0.56 | 0.261 | 0.688 | 0.635 | 0.483 | 0.623 | 0.531 | 0.937 | 0.837 | 0.806 | 0.805 | 0.641 |
| NCI-H460 | 1.01 | 1.01 | 0.967 | 0.951 | 1.02 | 0.553 | 0.423 | 0.333 | 0.54 | 0.121 | 1.16 | 1.2 | 1.15 | 1.03 | 1.07 | 0.499 | 0.506 | 0.528 | 0.475 | 0.433 |
| NCI-H520 | 1.01 | 1.05 | 1.08 | 0.943 | 1.01 | 0.426 | 0.441 | 0.434 | 0.466 | 0.413 | 1.11 | 1.05 | 1.16 | 0.926 | 0.967 | 0.793 | 0.633 | 0.706 | 0.376 | 0.58 |
| NCI-H596 | 1.09 | 0.938 | 0.878 | 0.987 | 0.866 | 0.882 | 0.893 | 0.881 | 0.925 | 0.786 | 1.02 | 0.857 | 0.92 | 1 | 0.785 | 0.718 | 0.805 | 0.686 | 0.721 | 0.677 |
| NCI-H647 | 1.03 | 1.01 | 1.11 | 0.94 | 0.942 | 0.277 | 0.213 | 0.265 | 0.352 | 0.156 | 1.07 | 1.28 | 1.19 | 1.15 | 1.13 | 0.65 | 0.552 | 0.557 | 0.468 | 0.426 |
| NCI-H727 | 1.03 | 0.966 | 0.843 | 0.904 | 0.656 | 0.759 | 0.584 | 0.552 | 0.715 | 0.467 | 0.337 | 0.557 | 0.484 | 0.577 | 0.183 | 0.612 | 0.615 | 0.509 | 0.595 | 0.364 |
| NCI-H838 | 0.935 | 0.967 | 0.961 | 0.949 | 0.829 | 0.266 | 0.299 | 0.257 | 0.254 | 0.22 | 1.09 | 1.19 | 1.22 | 1.08 | 0.867 | 0.668 | 0.624 | 0.595 | 0.574 | 0.427 |
| NCI-H1355 | 0.986 | 1.02 | 0.979 | 0.924 | 0.908 | 0.62 | 0.593 | 0.515 | 0.513 | 0.506 | 0.981 | 0.955 | 0.963 | 0.873 | 0.812 | 0.454 | 0.419 | 0.441 | 0.414 | 0.373 |
| NCI-H1395 | 0.948 | 0.974 | 1.14 | 0.892 | 0.844 | 0.808 | 0.779 | 0.786 | 0.724 | 0.677 | 1.15 | 1.26 | 1.25 | 1.1 | 0.938 | 0.453 | 0.421 | 0.503 | 0.417 | 0.442 |
